In patent US4714698A, “8-alkylthio-2-piperazino-pyrimido[5,4-d]-pyrimidines” (Dr. Karl Thomae GmbH, priority 1984, dated 1987):

How the values were obtained:
[1] = molecular target: phosphodiesterase from human thrombocytes; test: PDE inhibition (PDE assay), phosphodiesterase from human thrombocytes, 3H-cAMP substrate; assay type: biochemical; conditions: concentration which inhibited PDE activity by 50%, 1 μmol/l 3H-cAMP as substrate, read-out: PDE inhibition ED50, Human thrombocytes
Method: Phosphodiesterase was obtained from human thrombocytes by an analogous method.
(§1) The PDE inhibition by the test substances was determined using 1 μmol/1 of ^3 H-cAMP as substrate. The PDE inhibition was determined by measuring the degradation of the substrate ^3 H-cAMP used into ^3 H-AMP by comparison with the control without the test substance. The ^3 H-AMP formed was separated from the remaining ^3 H-cAMP by precipitation with zinc sulphate-barium hydroxide.
(§2) The ED50, i.e. the concentration which inhibited the PDE activity by 50%, was calculated by linear regression analysis.

[2] = Tolerability / lethality in mice; assay type: in vivo; conditions: 10 animals
Description: Moreover, the new compounds are well tolerated.

[3] = tested on: phosphodiesterase from B16 melanoma tissue (B16 tumour cells); test: PDE inhibition (PDE assay), phosphodiesterase from B16 melanoma tissue, 3H-cAMP substrate; assay type: biochemical, mice; conditions: concentration which inhibited PDE activity by 50%, 1 μmol/l 3H-cAMP as substrate, read-out: PDE inhibition ED50, B16 tumour cells
Method: The phosphodiesterase was obtained from B16 melanoma tissue from mice by centrifuging the homogenised tissue at 5000×g (15 minutes at 4° C.). The tissues were homogenized by repeated freezing and thawing and homogenisation according to Potter-Elvehjem or by ultrasound. The homogenised supernatant containing the PDE was deep frozen and stored in batches at -25° C.
as §1, §2

IC50 [1] | IC50 [3] | SMILES | deaths of animals ([2]; 20 mg/kg i.v.) | deaths of animals ([2]; 100 mg/kg p.o.)
1300 nM | 37 nM | CCN(CC)c1nc(N2CCNCC2)nc2c(SC)ncnc12 [Substance B, 4-Diethylamino-8-methylthio-2-piperazino-pyrimido[5,4-d]pyrimidine] | – | –
1200 nM | 120 nM | CCCCCCNc1nc(N2CCNCC2)nc2c(SC)ncnc12 [Substance C, 4-n-Hexylamino-8-methylthio-2-piperazino-pyrimido[5,4-d]pyrimidine] | – | –
1700 nM | 28 nM | CSc1ncnc2c(N3CCCCCC3)nc(N3CCNCC3)nc12 [Substance D, 4-Hexamethyleneimino-8-methylthio-2-piperazinopyrimido[5,4-d]pyrimidine] | – | –

SMILES | IC50 [1] | IC50 [3] | deaths of animals ([2]; 20 mg/kg i.v.) | deaths of animals ([2]; 100 mg/kg p.o.)
CSc1ncnc2c(N3CCCC3)nc(N3CCNCC3)nc12 [Substance A, 8-Methylthio-2-piperazino-4-pyrrolidino-pyrimido[5,4-d]pyrimidine] | 1600 nM | 66 nM | none of the 10 animals used died | none of the 10 animals used died
